The target in the assay is T1, human LPA1 (Homo sapiens, UniProt Q92633).
T1 construct: expressed in transfected cells; host or cells: Chinese hamster ovary (CHO) cells
In words: LPA1 functional antagonist assay (LPA-induced calcium flux). In kind it is cell-based. The conditions noted are these: read-out: hLPA1 IC50. The procedure, abridged:
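CHO cells overexpressing human LPA1, loaded with calcium dye 30 min at 37° C, were preincubated 20 min at room temperature with compound (0.08 nM–5 μM, 0.5% DMSO) in HBSS/20 mM HEPES/0.1% fatty acid-free BSA.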
For orientation: Calcium flux is commonly read through the fluorescence of an indicator in the cells.

The mark [1] stands for this setting: CHO cells overexpressing human LPA1, inhibition of calcium flux induced by 10 nM LPA.

Where two headings read alike, the source gives them in different places.

T1 sequence (Q92633 whole entry): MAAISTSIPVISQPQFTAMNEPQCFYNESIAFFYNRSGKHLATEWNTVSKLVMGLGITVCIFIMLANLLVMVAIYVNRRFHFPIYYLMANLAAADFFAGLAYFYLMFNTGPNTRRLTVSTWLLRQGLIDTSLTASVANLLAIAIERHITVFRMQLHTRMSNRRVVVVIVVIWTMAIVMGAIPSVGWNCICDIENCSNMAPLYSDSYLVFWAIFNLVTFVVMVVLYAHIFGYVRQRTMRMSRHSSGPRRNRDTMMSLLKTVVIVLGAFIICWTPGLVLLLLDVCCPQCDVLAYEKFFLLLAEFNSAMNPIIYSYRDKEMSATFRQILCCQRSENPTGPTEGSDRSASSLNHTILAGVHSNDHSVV

Take `CCCN(CC)C(=O)OCc1c(-c2ccc(O[C@H]3CCC[C@H](C(=O)O)C3)c(C)n2)nnn1C` [Example 128, (1S,3S)-3-((6-(5-(((ethyl(propyl)carbamoyl)oxy)methyl)-1-methyl-1H-1,2,3-triazol-4-yl)-2-methylpyridin-3-yl)oxy)cyclohexane-1-carboxylic acid]: the IC50 is 158 nM.

Regarding `Cc1nc(-c2nnn(C)c2COC(=O)N2CCC(C)(C)C2)ccc1O[C@H]1CCC[C@H](C(=O)O)C1` [Example 140, (1S,3S)-3-((6-(5-(((3,3-dimethylpyrrolidine-1-carbonyl)oxy)methyl)-1-methyl-1H-1,2,3-triazol-4-yl)-2-methylpyridin-3-yl)oxy)cyclohexane-1-carboxylic acid], the IC50 was 148 nM.

In the case of `Cc1nc(-c2nnn(C)c2COC(=O)N(C)C2CCC2)cnc1O[C@H]1CCC[C@H](C(=O)O)C1` [Example 229, (1S,3S)-3-((5-(5-(((cyclobutyl(methyl)carbamoyl)oxy)methyl)-1-methyl-1H-1,2,3-triazol-4-yl)-3-methylpyrazin-2-yl)oxy)cyclohexane-1-carboxylic acid], the IC50 under setting [1] stood at 76 nM.

Turning to `Cc1nc(-c2nnn(C)c2COC(=O)N(C)CC2CCC2)ccc1O[C@H]1CCC[C@](F)(C(=O)O)C1` (single isomer, unassigned) [Example 13, 3-((6-(5-((((cyclobutylmethyl)(methyl)carbamoyl)oxy)methyl)-1-methyl-1H-1,2,3-triazol-4-yl)-2-methylpyridin-3-yl)oxy)-1-fluorocyclohexane-1-carboxylic Acid], the IC50 under setting [1] is 95 nM.

`Cn1nnc(-c2ccc(O[C@H]3CCC[C@H](C(=O)O)C3)cn2)c1COC(=O)N1CC2(CCC2)C1` [Example 176, (1S,3S)-3-((6-(5-(((2-azaspiro[3.3]heptane-2-carbonyl)oxy)methyl)-1-methyl-1H-1,2,3-triazol-4-yl)pyridin-3-yl)oxy)cyclohexane-1-carboxylic acid]: the IC50 (human LPA1) amounted to 400 nM.

As to `Cc1nc(-c2nnn(C)c2COC(=O)N2CC(C)(C)C2)ccc1O[C@H]1CCC[C@H](C(=O)O)C1` [Example 155, (1S,3S)-3-((6-(5-(((3,3-dimethylazetidine-1-carbonyl)oxy)methyl)-1-methyl-1H-1,2,3-triazol-4-yl)-2-methylpyridin-3-yl)oxy)cyclohexane-1-carboxylic acid], the IC50 turned out to be 175 nM.

For the molecule `Cc1nc(-c2nnn(C)c2COC(=O)N(C)C2(C)CC2)ccc1O[C@H]1CCC[C@H](C(=O)O)C1` [Example 85, (1S,3S)-3-((2-methyl-6-(1-methyl-5-(((methyl(1-methylcyclopropyl)carbamoyl)oxy)methyl)-1H-1,2,3-triazol-4-yl)pyridin-3-yl)oxy)cyclohexane-1-carboxylic acid], the IC50 stood at 58 nM.

As for `Cc1nc(-c2nnn(C)c2COC(=O)N(C)CC2CCC2)ccc1O[C@H]1CCC[C@H](c2nnn[nH]2)C1` [Example 16, (4-(5-(((1S,3 S)-3-(1H-tetrazol-5-yl)cyclohexyl)oxy)-6-methylpyridin-2-yl)-1-methyl-1H-1,2,3-triazol-5-yl)methyl (cyclobutylmethyl)(methyl)carbamate], the concentration for half-maximal inhibition (IC50) under setting [1] is 22 nM.

With `Cc1nc(-c2nnn(C)c2COC(=O)N(C)CC(C)(C)F)ccc1O[C@H]1CCC[C@H](C(=O)O)C1` [Example 253, (1S,3S)-3-((6-(5-((((2-fluoro-2-methylpropyl)(methyl)carbamoyl)oxy)methyl)-1-methyl-1H-1,2,3-triazol-4-yl)-2-methylpyridin-3-yl)oxy)cyclohexane-1-carboxylic acid], the IC50 under setting [1] came out at 134 nM.

As for `CN(C(=O)OCc1c(-c2ccc(O[C@H]3CCC[C@H](C(=O)O)C3)c(C(F)(F)F)n2)nnn1C)C1CCCC1` [Example 276, (1S,3S)-3-((6-(5-(((cyclopentyl(methyl)carbamoyl)oxy)methyl)-1-methyl-1H-1,2,3-triazol-4-yl)-2-(trifluoromethyl)pyridin-3-yl)oxy)cyclohexane-1-carboxylic acid], under setting [1], the IC50 came to 15 nM.

For `Cc1cc(-c2nnn(C)c2COC(=O)N(C)[C@H](C)C2CC2)ccc1O[C@H]1CCC[C@H](C(=O)O)C1` [Example 36, (1S,3S)-3-(4-(5-(((((R)-1-cyclopropylethyl)(methyl)carbamoyl)oxy)methyl)-1-methyl-1H-1,2,3-triazol-4-yl)-2-methylphenoxy)cyclohexane-1-carboxylic acid], the 50% inhibitory concentration (IC50) worked out at 6 nM.

`CC(C)=CCN(C)C(=O)OCc1c(-c2ccc(O[C@H]3CCC[C@@H](C(=O)O)C3)c(C)n2)nnn1C` [Example 172, (1R,3S)-3-((2-methyl-6-(1-methyl-5-(((methyl(3-methylbut-2-en-1-yl)carbamoyl)oxy)methyl)-1H-1,2,3-triazol-4-yl)pyridin-3-yl)oxy)cyclohexane-1-carboxylic acid]: for the setting “human LPA1”, the IC50 amounted to 312 nM.

With `Cc1nc(-c2nnn(C)c2COC(=O)N(C)CC2CCC2)ccc1O[C@H]1CCC[C@H](C#N)C1` [Example 15, (4-(5-(((1S,3S)-3-cyanocyclohexyl)oxy)-6-methylpyridin-2-yl)-1-methyl-1H-1,2,3-triazol-5-yl)methyl (cyclobutylmethyl)(methyl)carbamate], the IC50 under setting [1] was 3750 nM.

As to `Cc1nc(-c2nnn(C)c2COC(=O)NC23CC(C2)C3)ccc1O[C@H]1CCC[C@H](C(=O)O)C1` [Example 105, (1S,3S)-3-((6-(5-(((bicyclo[1.1.1]pentan-1-ylcarbamoyl)oxy)methyl)-1-methyl-1H-1,2,3-triazol-4-yl)-2-methylpyridin-3-yl)oxy)cyclohexane-1-carboxylic acid], the IC50 was 576 nM.

Regarding `CC(C1CC1)N(C)C(=O)OCc1c(-c2ccc(O[C@H]3CCC[C@H](C(=O)O)C3)cc2)nnn1C` (mixture of isomers) [Example 65, trans-3-(4-(5-((((1-cyclopropylethyl)(methyl)carbamoyl)oxy)methyl)-1-methyl-1H-1,2,3-triazol-4-yl)phenoxy)cyclohexane-1-carboxylic acid], the IC50 came to 80 nM.

`CCCCN(C)C(=O)OCc1c(-c2ccc(O[C@H]3CCC[C@H](C(=O)O)C3)cn2)nnn1C` [Example 43, (1S,3S)-3-((6-(5-(((butyl(methyl)carbamoyl)oxy)methyl)-1-methyl-1H-1,2,3-triazol-4-yl)pyridin-3-yl)oxy)cyclohexane-1-carboxylic acid]: the IC50 stood at 7 nM.

Regarding `CN(CC1CCC1)C(=O)OCc1c(-c2ccc(O[C@H]3CCC[C@H](C(=O)O)C3)c(C#N)n2)nnn1C` [Example 292, (1S,3S)-3-((2-cyano-6-(5-((((cyclobutylmethyl)(methyl)carbamoyl)oxy)methyl)-1-methyl-1H-1,2,3-triazol-4-yl)pyridin-3-yl)oxy)cyclohexane-1-carboxylic acid], the IC50 under setting [1] is 20 nM.

In the case of `CN(CCC1CC1)C(=O)OCc1c(-c2ccc(O[C@H]3CCC[C@H](C(=O)O)C3)cn2)nnn1C` [Example 3, (1S,3S)-3-((6-(5-((((2-cyclopropylethyl)(methyl)carbamoyl)oxy)methyl)-1-methyl-1H-1,2,3-triazol-4-yl)pyridin-3-yl)oxy)cyclohexane-1-carboxylic Acid], the IC50 under setting [1] worked out at 19 nM.

`Cc1nc(-c2nnn(C)c2COC(=O)N2CCC(c3ccccc3)C2)ccc1O[C@H]1CCC[C@H](C(=O)O)C1` (mixture of isomers) [Example 169, (1S,3S)-3-((2-methyl-6-(1-methyl-5-(((3-phenylpyrrolidine-1-carbonyl)oxy)methyl)-1H-1,2,3-triazol-4-yl)pyridin-3-yl)oxy)cyclohexane-1-carboxylic acid]: the IC50 (human LPA1) was found to be 336 nM.

What is called IC50 is the point on the concentration scale where inhibition reaches its midpoint.

The values above are taken from patent US10576062B2, “Carbamoyloxymethyl triazole cyclohexyl acids as LPA antagonists” (Bristol-Myers Squibb Company, priority 2016, dated 2020).
